Source: PubChem BioAssay (NCI)
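Dose response: 5 concentrations. Exposure: 48 h. Format: 96-well plates. Endpoint: linear interpolation; highest concentration if not reached. TGI: total growth inhibition.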

Key:
Experiment in all cases: inhibition of tumour cell growth, NCI panel, 48 h
K-562 leukemia = system: K-562 leukemia
A549 NSCLC = system: A549 NSCLC
OVCAR-4 ovarian = system: OVCAR-4 ovarian
MCF7 breast = system: MCF7 breast
MOLT-4 leukemia = system: MOLT-4 leukemia
EKVX NSCLC = system: EKVX NSCLC
TK-10 renal = system: TK-10 renal
SF-295 CNS = system: SF-295 CNS
NCI-H23 lung = system: NCI-H23 lung
UO-31 renal = system: UO-31 renal
RXF 393 renal = system: RXF 393 renal
RPMI-8226 leukemia = system: RPMI-8226 leukemia
OVCAR-5 ovarian = system: OVCAR-5 ovarian
KM12 colon = system: KM12 colon
ACHN renal = system: ACHN renal
HCT-15 colon = system: HCT-15 colon
HOP-62 NSCLC = system: HOP-62 NSCLC
SK-OV-3 ovarian = system: SK-OV-3 ovarian
HT29 colon = system: HT29 colon
UACC-257 melanoma = system: UACC-257 melanoma
LOX IMVI melanoma = system: LOX IMVI melanoma
MDA-MB-231 breast = system: MDA-MB-231 breast
SK-MEL-5 melanoma = system: SK-MEL-5 melanoma
PC-3 prostate = system: PC-3 prostate
HL-60(TB) leukemia = system: HL-60(TB) leukemia
HCT-116 colon = system: HCT-116 colon
A498 renal = system: A498 renal
HS 578T breast = system: HS 578T breast
UACC-62 melanoma = system: UACC-62 melanoma
CCRF-CEM leukemia = system: CCRF-CEM leukemia
NCI/ADR-RES ovarian = system: NCI/ADR-RES ovarian
NCI-H226 lung = system: NCI-H226 lung
SK-MEL-2 melanoma = system: SK-MEL-2 melanoma
OVCAR-8 ovarian = system: OVCAR-8 ovarian
MDA-N = system: MDA-N
T-47D breast = system: T-47D breast
MDA-MB-435 = system: MDA-MB-435
M14 melanoma = system: M14 melanoma
786-0 renal = system: 786-0 renal
NCI-H522 lung = system: NCI-H522 lung
SN12C renal = system: SN12C renal
OVCAR-3 ovarian = system: OVCAR-3 ovarian
HOP-92 NSCLC = system: HOP-92 NSCLC
SF-539 CNS = system: SF-539 CNS
HCC-2998 colon = system: HCC-2998 colon
MALME-3M melanoma = system: MALME-3M melanoma
IGROV1 ovarian = system: IGROV1 ovarian
U251 CNS = system: U251 CNS
COLO 205 colon = system: COLO 205 colon
SNB-75 CNS = system: SNB-75 CNS
CAKI-1 renal = system: CAKI-1 renal
SNB-19 CNS = system: SNB-19 CNS
SW-620 colon = system: SW-620 colon
SF-268 CNS = system: SF-268 CNS
SK-MEL-28 melanoma = system: SK-MEL-28 melanoma
DU-145 prostate = system: DU-145 prostate
NCI-H460 lung = system: NCI-H460 lung
SR leukemia = system: SR leukemia

With `COC(=O)c1c2c(cc3c1CC1(C3)Cc3cc4c(c(C(=O)OC)c3C1)CCCC4)CCCC2` the TGI (K-562 leukemia) was greater than 100 µM, the TGI (A549 NSCLC) was greater than 100 µM and the TGI (OVCAR-4 ovarian) was greater than 100 µM. The TGI (MCF7 breast) was greater than 100 µM, the TGI (MOLT-4 leukemia) was greater than 100 µM and the TGI (EKVX NSCLC) was greater than 100 µM. The TGI (TK-10 renal) was greater than 100 µM, the TGI (SF-295 CNS) was greater than 100 µM and the TGI (NCI-H23 lung) was greater than 100 µM. For the same compound, the TGI (UO-31 renal) was 1.23 µM, the TGI (RXF 393 renal) was greater than 100 µM and the TGI (RPMI-8226 leukemia) was greater than 100 µM. The TGI (OVCAR-5 ovarian) was greater than 100 µM, the TGI (KM12 colon) was greater than 100 µM and the TGI (ACHN renal) was greater than 100 µM. The TGI (HCT-15 colon) was greater than 100 µM, the TGI (HOP-62 NSCLC) was greater than 100 µM and the TGI (SK-OV-3 ovarian) was greater than 100 µM. It also gave a TGI (HT29 colon) greater than 100 µM, a TGI (UACC-257 melanoma) greater than 100 µM and a TGI (LOX IMVI melanoma) greater than 100 µM. The TGI (MDA-MB-231 breast) was greater than 100 µM, the TGI (SK-MEL-5 melanoma) was greater than 100 µM and the TGI (PC-3 prostate) was 39.5 µM. It also gave a TGI (HL-60(TB) leukemia) of 74.5 µM, a TGI (HCT-116 colon) greater than 100 µM and a TGI (A498 renal) greater than 100 µM. It also gave a TGI (HS 578T breast) greater than 100 µM, a TGI (UACC-62 melanoma) greater than 100 µM and a TGI (CCRF-CEM leukemia) of 96 µM. For the same compound, the TGI (NCI/ADR-RES ovarian) was greater than 100 µM, the TGI (NCI-H226 lung) was greater than 100 µM and the TGI (SK-MEL-2 melanoma) was 5.18 µM. The TGI (OVCAR-8 ovarian) was greater than 100 µM, the TGI (MDA-N) was greater than 100 µM and the TGI (T-47D breast) was greater than 100 µM. It also gave a TGI (MDA-MB-435) greater than 100 µM, a TGI (M14 melanoma) greater than 100 µM and a TGI (786-0 renal) greater than 100 µM. For the same compound, the TGI (NCI-H522 lung) was greater than 100 µM, the TGI (SN12C renal) was greater than 100 µM and the TGI (OVCAR-3 ovarian) was greater than 100 µM. It also gave a TGI (HOP-92 NSCLC) greater than 100 µM, a TGI (SF-539 CNS) greater than 100 µM and a TGI (HCC-2998 colon) greater than 100 µM. It also gave a TGI (MALME-3M melanoma) greater than 100 µM, a TGI (IGROV1 ovarian) greater than 100 µM and a TGI (U251 CNS) greater than 100 µM. It also gave a TGI (COLO 205 colon) greater than 100 µM.

For `C1=CC2=CC=CC3c4nc5ccc6ccccc6c5nc4C(=C1)C23` (stereo not given), the TGI (K-562 leukemia) was greater than 100 µM, the TGI (A549 NSCLC) was greater than 100 µM and the TGI (SNB-75 CNS) was greater than 100 µM. The TGI (OVCAR-4 ovarian) was greater than 100 µM, the TGI (MCF7 breast) was greater than 100 µM and the TGI (MOLT-4 leukemia) was greater than 100 µM. It also gave a TGI (EKVX NSCLC) greater than 100 µM, a TGI (TK-10 renal) greater than 100 µM and a TGI (SF-295 CNS) greater than 100 µM. For the same compound, the TGI (NCI-H23 lung) was greater than 100 µM, the TGI (UO-31 renal) was greater than 100 µM and the TGI (CAKI-1 renal) was greater than 100 µM. The TGI (RXF 393 renal) was greater than 100 µM, the TGI (SNB-19 CNS) was greater than 100 µM and the TGI (SW-620 colon) was greater than 100 µM. The TGI (RPMI-8226 leukemia) was greater than 100 µM, the TGI (OVCAR-5 ovarian) was greater than 100 µM and the TGI (KM12 colon) was greater than 100 µM. The TGI (ACHN renal) was greater than 100 µM, the TGI (SF-268 CNS) was greater than 100 µM and the TGI (HCT-15 colon) was greater than 100 µM. The TGI (HOP-62 NSCLC) was greater than 100 µM, the TGI (SK-OV-3 ovarian) was greater than 100 µM and the TGI (HT29 colon) was greater than 100 µM. For the same compound, the TGI (UACC-257 melanoma) was greater than 100 µM, the TGI (LOX IMVI melanoma) was greater than 100 µM and the TGI (MDA-MB-231 breast) was greater than 100 µM. For the same compound, the TGI (SK-MEL-5 melanoma) was greater than 100 µM, the TGI (PC-3 prostate) was greater than 100 µM and the TGI (HL-60(TB) leukemia) was greater than 100 µM. It also gave a TGI (HCT-116 colon) greater than 100 µM, a TGI (HS 578T breast) greater than 100 µM and a TGI (UACC-62 melanoma) greater than 100 µM. It also gave a TGI (CCRF-CEM leukemia) greater than 100 µM, a TGI (NCI/ADR-RES ovarian) greater than 100 µM and a TGI (NCI-H226 lung) greater than 100 µM. For the same compound, the TGI (SK-MEL-2 melanoma) was greater than 100 µM, the TGI (OVCAR-8 ovarian) was greater than 100 µM and the TGI (MDA-N) was greater than 100 µM. The TGI (T-47D breast) was greater than 100 µM, the TGI (MDA-MB-435) was greater than 100 µM and the TGI (M14 melanoma) was greater than 100 µM. The TGI (786-0 renal) was greater than 100 µM, the TGI (SN12C renal) was greater than 100 µM and the TGI (OVCAR-3 ovarian) was greater than 100 µM. It also gave a TGI (HOP-92 NSCLC) greater than 100 µM, a TGI (SF-539 CNS) greater than 100 µM and a TGI (SK-MEL-28 melanoma) greater than 100 µM. For the same compound, the TGI (DU-145 prostate) was greater than 100 µM, the TGI (NCI-H460 lung) was greater than 100 µM and the TGI (HCC-2998 colon) was greater than 100 µM. The TGI (MALME-3M melanoma) was greater than 100 µM, the TGI (IGROV1 ovarian) was greater than 100 µM and the TGI (U251 CNS) was greater than 100 µM. For the same compound, the TGI (COLO 205 colon) was greater than 100 µM and the TGI (SR leukemia) was greater than 100 µM.
